Reference: ChEMBL document CHEMBL5465560, “Selectivity Literature for EUbOPEN Chemogenomic Library” (2024)
Values belong to the compound of their own block, whether it stands above or below them.

Columns and labels:
[1] = target: Serine/threonine-protein kinase 16 (Homo sapiens, UniProt O75716); assay: Selectivity interaction (ActivX KiNativ screen (kinase selectivity in THP-1 cell lysates)) EUB0000639a STK16; assay type: subcellular; conditions: lysate, at 0.04 µM
[2] = target: Macrophage colony-stimulating factor 1 receptor (Homo sapiens) (UniProt P07333); assay: Selectivity interaction (Kinase panel (Invitrogen)) EUB0000639a CSF1R; conditions: at 200 nM
[3] = target: Serine/threonine-protein kinase SIK3 (Homo sapiens) (UniProt Q9Y2K2); assay: Selectivity interaction (LanthaScreen Eu Kinase Binding Assay) EUB0001632a SIK3; conditions: at 10 µM
[4] = target: Bone morphogenetic protein receptor type-1A (Homo sapiens, UniProt P36894); conditions: at 10 µM
[5] = target: T1, Serine/threonine-protein kinase D1 (Homo sapiens) (UniProt Q15139); conditions: at 10 µM
T1 sequence (whole entry): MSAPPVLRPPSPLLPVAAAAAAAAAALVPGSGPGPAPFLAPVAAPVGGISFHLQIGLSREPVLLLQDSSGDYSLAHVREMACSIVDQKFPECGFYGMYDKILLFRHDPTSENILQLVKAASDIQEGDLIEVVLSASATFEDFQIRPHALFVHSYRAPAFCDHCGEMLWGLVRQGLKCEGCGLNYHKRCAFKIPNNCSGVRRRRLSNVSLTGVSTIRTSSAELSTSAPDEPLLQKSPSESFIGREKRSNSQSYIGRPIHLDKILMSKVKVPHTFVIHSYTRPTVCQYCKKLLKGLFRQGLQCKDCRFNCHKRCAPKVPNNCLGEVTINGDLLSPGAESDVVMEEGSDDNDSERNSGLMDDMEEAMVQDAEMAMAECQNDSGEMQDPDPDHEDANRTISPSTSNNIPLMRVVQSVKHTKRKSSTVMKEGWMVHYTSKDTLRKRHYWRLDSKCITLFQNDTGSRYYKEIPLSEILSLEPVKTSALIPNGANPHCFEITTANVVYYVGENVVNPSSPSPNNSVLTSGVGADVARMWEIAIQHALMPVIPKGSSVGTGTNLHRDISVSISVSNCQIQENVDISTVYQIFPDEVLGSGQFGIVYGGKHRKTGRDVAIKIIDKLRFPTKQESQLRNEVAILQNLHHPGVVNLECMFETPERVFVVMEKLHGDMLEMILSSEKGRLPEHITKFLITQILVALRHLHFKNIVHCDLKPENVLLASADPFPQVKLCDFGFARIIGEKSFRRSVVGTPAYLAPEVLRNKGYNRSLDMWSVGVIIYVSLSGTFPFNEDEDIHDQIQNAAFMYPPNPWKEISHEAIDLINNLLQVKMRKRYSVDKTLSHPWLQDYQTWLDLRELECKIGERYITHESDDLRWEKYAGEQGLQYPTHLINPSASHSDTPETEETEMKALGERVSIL

[6] = target: T2, Tyrosine-protein kinase Tec (Homo sapiens) (UniProt P42680); assay: Selectivity interaction (KinomeScan (DiscoverX)) EUB0001079a TEC; conditions: at 1 µM
T2 sequence (whole entry): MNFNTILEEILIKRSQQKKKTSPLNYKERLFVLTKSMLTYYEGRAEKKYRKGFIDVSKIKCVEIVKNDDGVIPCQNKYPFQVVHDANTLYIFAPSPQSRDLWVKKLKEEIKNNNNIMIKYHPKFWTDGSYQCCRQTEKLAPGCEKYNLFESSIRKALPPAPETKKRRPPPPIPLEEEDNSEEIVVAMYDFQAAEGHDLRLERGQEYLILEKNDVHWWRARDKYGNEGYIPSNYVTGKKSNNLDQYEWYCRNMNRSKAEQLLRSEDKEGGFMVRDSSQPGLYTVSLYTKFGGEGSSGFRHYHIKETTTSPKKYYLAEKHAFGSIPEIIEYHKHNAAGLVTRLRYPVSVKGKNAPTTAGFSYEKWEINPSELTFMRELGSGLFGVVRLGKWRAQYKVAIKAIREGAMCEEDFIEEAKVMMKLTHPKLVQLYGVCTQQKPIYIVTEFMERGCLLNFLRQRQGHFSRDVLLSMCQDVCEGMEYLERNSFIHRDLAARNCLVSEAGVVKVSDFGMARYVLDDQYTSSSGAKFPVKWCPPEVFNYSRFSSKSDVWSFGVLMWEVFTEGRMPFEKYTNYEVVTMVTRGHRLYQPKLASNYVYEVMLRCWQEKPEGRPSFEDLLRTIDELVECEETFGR

[7] = target: Protein kinase C eta type (Homo sapiens) (UniProt P24723); assay: Selectivity interaction (KinomeScan (DiscoverX)) EUB0001079a PRKCH; conditions: at 1 µM
[8] = target: Casein kinase I isoform gamma-3 (Homo sapiens) (UniProt Q9Y6M4); assay: Selectivity interaction (ProQinase) EUB0000171b CSNK1G3
[9] = target: Dual specificity mitogen-activated protein kinase kinase 2 (Homo sapiens) (UniProt P36507); assay: Selectivity interaction (KinomeScan (DiscoverX)) EUB0000655a MAP2K2; conditions: at 10 µM
[10] = target: T3, Activin receptor type-1B (Homo sapiens) (UniProt P36896); assay: Selectivity interaction (KinomeScan (DiscoverX)) EUB0000655a ACVR1B; conditions: at 10 µM
T3 sequence (whole entry): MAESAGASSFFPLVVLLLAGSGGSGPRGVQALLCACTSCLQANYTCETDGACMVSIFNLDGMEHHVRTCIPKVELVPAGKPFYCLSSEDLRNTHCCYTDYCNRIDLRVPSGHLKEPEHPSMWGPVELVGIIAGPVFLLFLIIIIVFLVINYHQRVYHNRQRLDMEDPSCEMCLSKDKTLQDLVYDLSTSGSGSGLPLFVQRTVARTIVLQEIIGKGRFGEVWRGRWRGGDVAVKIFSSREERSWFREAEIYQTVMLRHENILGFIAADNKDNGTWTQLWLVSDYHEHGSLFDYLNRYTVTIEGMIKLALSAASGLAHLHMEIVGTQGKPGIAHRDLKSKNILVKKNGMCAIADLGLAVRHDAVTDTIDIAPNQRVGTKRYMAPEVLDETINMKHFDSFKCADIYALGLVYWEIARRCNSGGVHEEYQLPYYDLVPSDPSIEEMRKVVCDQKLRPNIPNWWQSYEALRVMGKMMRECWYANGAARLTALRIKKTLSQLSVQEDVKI

[11] = target: Macrophage colony-stimulating factor 1 receptor (Homo sapiens) (UniProt P07333); assay: Selectivity interaction (KinomeScan (DiscoverX)) EUB0001619a CSF1R; conditions: at 1 µM
[12] = target: Serine/threonine-protein kinase Chk2 (Homo sapiens) (UniProt O96017); assay: Selectivity interaction (KinomeScan (DiscoverX)) EUB0001619a CHEK2; conditions: at 1 µM
Serine/threonine-protein kinase Chk2 (Homo sapiens), sequence (O96017 whole entry): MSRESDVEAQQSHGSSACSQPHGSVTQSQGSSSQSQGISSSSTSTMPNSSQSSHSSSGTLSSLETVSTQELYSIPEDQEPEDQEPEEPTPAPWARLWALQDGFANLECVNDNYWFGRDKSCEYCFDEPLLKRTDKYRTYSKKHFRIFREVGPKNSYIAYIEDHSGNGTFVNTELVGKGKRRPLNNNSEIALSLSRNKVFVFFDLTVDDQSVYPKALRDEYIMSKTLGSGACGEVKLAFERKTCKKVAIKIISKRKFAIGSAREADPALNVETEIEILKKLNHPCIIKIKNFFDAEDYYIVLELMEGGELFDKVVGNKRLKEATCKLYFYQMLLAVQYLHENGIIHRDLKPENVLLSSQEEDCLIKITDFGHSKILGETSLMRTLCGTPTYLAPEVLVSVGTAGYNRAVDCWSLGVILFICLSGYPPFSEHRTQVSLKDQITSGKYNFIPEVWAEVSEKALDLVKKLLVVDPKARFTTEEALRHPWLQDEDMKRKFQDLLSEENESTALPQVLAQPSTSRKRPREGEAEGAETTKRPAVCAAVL

Casein kinase I isoform gamma-3 (Homo sapiens), sequence (Q9Y6M4 whole entry, looked up, canonical isoform): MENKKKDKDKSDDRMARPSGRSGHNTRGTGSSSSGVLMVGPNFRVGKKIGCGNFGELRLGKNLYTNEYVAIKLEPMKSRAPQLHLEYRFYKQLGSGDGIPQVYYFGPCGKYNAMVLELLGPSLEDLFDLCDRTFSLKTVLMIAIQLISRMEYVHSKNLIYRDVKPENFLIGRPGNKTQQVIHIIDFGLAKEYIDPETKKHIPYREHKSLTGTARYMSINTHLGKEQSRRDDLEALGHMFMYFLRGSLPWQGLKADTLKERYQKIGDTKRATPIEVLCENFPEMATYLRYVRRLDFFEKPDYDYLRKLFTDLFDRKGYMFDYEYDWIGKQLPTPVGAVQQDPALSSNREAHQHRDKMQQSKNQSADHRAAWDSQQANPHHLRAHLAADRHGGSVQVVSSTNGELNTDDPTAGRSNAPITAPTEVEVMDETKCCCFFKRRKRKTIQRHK
Macrophage colony-stimulating factor 1 receptor (Homo sapiens), sequence (P07333 whole entry): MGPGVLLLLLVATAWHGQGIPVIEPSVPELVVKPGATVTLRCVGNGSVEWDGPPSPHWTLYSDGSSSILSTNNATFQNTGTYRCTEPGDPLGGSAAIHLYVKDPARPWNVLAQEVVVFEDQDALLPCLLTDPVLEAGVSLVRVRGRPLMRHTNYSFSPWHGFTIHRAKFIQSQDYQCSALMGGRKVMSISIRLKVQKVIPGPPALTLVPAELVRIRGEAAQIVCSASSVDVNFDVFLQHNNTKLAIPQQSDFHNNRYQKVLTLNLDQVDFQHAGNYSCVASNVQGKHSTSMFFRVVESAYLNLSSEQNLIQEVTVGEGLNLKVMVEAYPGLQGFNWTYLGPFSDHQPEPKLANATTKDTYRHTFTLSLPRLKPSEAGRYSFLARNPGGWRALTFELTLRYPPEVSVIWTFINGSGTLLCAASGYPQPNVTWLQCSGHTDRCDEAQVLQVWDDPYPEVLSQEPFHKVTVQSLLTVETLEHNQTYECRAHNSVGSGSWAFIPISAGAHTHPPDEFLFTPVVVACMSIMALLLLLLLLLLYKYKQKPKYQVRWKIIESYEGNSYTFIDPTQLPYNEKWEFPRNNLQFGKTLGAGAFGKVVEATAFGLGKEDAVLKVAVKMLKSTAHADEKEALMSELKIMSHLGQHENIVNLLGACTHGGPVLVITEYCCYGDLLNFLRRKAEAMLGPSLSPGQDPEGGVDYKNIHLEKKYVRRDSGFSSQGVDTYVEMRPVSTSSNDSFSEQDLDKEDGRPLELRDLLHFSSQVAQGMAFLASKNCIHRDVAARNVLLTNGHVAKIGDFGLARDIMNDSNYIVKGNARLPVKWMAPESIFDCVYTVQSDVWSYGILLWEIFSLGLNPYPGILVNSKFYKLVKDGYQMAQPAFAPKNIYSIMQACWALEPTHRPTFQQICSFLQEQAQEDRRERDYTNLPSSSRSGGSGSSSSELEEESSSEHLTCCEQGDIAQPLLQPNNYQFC
Bone morphogenetic protein receptor type-1A, sequence (P36894 whole entry): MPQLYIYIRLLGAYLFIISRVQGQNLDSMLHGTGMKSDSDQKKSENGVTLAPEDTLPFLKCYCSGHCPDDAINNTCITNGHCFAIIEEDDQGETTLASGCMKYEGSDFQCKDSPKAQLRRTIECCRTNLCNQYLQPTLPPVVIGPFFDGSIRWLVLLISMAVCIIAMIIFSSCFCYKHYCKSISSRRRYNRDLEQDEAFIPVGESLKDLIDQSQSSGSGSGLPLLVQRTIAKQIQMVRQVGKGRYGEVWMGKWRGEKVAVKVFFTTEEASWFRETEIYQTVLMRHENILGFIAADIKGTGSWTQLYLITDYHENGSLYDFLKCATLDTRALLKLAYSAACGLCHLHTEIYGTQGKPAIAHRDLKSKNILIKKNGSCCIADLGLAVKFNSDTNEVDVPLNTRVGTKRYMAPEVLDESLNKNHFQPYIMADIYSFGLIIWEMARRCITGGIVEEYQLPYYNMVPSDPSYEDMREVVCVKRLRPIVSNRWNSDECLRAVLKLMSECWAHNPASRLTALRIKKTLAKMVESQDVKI
Serine/threonine-protein kinase 16, sequence (O75716 whole entry): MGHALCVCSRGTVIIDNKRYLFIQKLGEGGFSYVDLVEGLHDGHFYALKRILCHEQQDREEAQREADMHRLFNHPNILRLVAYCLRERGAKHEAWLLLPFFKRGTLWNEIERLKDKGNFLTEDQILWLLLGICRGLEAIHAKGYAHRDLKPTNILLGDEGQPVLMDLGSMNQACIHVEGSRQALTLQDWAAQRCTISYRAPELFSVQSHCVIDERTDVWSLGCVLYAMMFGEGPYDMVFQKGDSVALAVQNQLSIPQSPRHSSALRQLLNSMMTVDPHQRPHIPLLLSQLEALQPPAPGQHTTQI
Protein kinase C eta type (Homo sapiens), sequence (P24723 whole entry, canonical isoform): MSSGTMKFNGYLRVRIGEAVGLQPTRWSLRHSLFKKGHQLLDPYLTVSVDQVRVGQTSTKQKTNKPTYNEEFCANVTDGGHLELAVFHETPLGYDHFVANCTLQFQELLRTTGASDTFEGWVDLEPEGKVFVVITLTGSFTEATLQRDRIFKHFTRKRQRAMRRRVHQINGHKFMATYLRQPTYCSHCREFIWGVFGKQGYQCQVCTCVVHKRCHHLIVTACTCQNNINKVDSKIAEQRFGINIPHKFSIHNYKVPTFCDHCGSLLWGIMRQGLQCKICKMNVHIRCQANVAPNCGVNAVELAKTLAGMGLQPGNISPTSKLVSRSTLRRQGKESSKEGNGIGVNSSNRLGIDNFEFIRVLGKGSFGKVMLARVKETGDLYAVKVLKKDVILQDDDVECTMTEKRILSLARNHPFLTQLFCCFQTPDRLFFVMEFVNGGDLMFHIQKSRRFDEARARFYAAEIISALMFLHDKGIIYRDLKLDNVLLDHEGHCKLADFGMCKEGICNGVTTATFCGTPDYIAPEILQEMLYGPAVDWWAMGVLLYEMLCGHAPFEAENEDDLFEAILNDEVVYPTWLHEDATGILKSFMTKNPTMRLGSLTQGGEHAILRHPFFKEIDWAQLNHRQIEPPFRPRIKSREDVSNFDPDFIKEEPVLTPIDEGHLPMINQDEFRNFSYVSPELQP
Dual specificity mitogen-activated protein kinase kinase 2 (Homo sapiens), sequence (P36507 whole entry): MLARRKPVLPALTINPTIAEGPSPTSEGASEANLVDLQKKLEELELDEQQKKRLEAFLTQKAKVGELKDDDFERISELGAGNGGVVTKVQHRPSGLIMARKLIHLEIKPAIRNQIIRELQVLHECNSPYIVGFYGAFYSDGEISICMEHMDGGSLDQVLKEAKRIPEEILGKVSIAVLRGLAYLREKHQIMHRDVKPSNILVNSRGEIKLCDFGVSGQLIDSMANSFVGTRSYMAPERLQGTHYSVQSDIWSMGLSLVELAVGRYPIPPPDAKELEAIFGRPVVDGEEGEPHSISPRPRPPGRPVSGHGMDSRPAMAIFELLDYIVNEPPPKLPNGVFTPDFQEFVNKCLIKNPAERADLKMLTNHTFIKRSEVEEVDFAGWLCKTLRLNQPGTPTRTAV

% of inhibition [1]: 13.8% | % of inhibition [2]: 5.5%
Structure (SMILES): CC[C@@H]1[C@H](F)C(=O)N[C@@H]1COc1nccc2cc(C(N)=O)c(OC)cc12 [ZIMLOVISERTIB]

% of inhibition [3]: 12.2%
Structure (SMILES): Cn1cc(-n2cnc3c(NCc4nc5cc(Cl)c(Cl)cc5[nH]4)nc(N4CCOCC4)nc32)cn1

% of control [4]: 100%
Structure (SMILES): CCN(CC)CCCCNc1ncc2cc(-c3cc(OC)cc(OC)c3)c(NC(=O)NC(C)(C)C)nc2n1

Structure (SMILES): COCC(=O)NC/C=C/c1ccc2ncnc(Nc3ccc(Oc4ccc(C)nc4)c(C)c3)c2c1 [CP-724714]
% of control [5]: 85%

Structure (SMILES): Nc1cnc(N2CCc3cc(S(=O)(=O)Nc4c(F)cc(Cl)cc4F)cc(N4CCCC4=O)c32)nc1 [TP-020n]
% of control [6]: 99% | % of control [7]: 80%

% of control ([8]; at 1 µM): 38% | % of control ([8]; at 5 µM): 12%
Structure (SMILES): C=CC(=O)Nc1cccc(C(=O)Nc2ccc(Nc3cc(-c4[nH]c(SC)nc4C)ccn3)cc2)c1

Structure (SMILES): CN(C)CCOc1ccc(-c2nc(-c3ccncc3)c(-c3ccc4c(c3)CC/C4=N\O)[nH]2)cc1
% of control [9]: 91% | % of control [10]: 40%

Structure (SMILES): N#Cc1cccc(-c2c[nH]c3ncnc(N4CCOCC4)c23)c1
% of control [11]: 100% | % of control [12]: 100%
